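How tested: cells in 96-well plates exposed to compound for 48 hours at five concentrations. TGI denotes the concentration required for complete inhibition of growth.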
Key:
Assay in all cases: NCI tumour cell line growth inhibition, 48 h
786-0 renal = tested on: 786-0 renal
A498 renal = tested on: A498 renal
A549 NSCLC = tested on: A549 NSCLC
ACHN renal = tested on: ACHN renal
BT-549 breast = tested on: BT-549 breast
CAKI-1 renal = tested on: CAKI-1 renal
CCRF-CEM leukemia = tested on: CCRF-CEM leukemia
COLO 205 colon = tested on: COLO 205 colon
DLD-1 colon = tested on: DLD-1 colon
DMS 114 small cell lung = tested on: DMS 114 small cell lung
DMS 273 small cell lung = tested on: DMS 273 small cell lung
DU-145 prostate = tested on: DU-145 prostate
EKVX NSCLC = tested on: EKVX NSCLC
HCC-2998 colon = tested on: HCC-2998 colon
HCT-116 colon = tested on: HCT-116 colon
HL-60(TB) leukemia = tested on: HL-60(TB) leukemia
HOP-18 NSCLC = tested on: HOP-18 NSCLC
HOP-62 NSCLC = tested on: HOP-62 NSCLC
HOP-92 NSCLC = tested on: HOP-92 NSCLC
HS 578T breast = tested on: HS 578T breast
HT29 colon = tested on: HT29 colon
IGROV1 ovarian = tested on: IGROV1 ovarian
K-562 leukemia = tested on: K-562 leukemia
KM12 colon = tested on: KM12 colon
KM20L2 colon = tested on: KM20L2 colon
LOX IMVI melanoma = tested on: LOX IMVI melanoma
LXFL 529 NSCLC = tested on: LXFL 529 NSCLC
M14 melanoma = tested on: M14 melanoma
MALME-3M melanoma = tested on: MALME-3M melanoma
MCF7 breast = tested on: MCF7 breast
MDA-MB-231 breast = tested on: MDA-MB-231 breast
MDA-MB-435 = tested on: MDA-MB-435
MDA-N = tested on: MDA-N
MOLT-4 leukemia = tested on: MOLT-4 leukemia
NCI-H226 lung = tested on: NCI-H226 lung
NCI-H23 lung = tested on: NCI-H23 lung
NCI-H460 lung = tested on: NCI-H460 lung
NCI-H522 lung = tested on: NCI-H522 lung
NCI/ADR-RES ovarian = tested on: NCI/ADR-RES ovarian
OVCAR-3 ovarian = tested on: OVCAR-3 ovarian
OVCAR-4 ovarian = tested on: OVCAR-4 ovarian
OVCAR-5 ovarian = tested on: OVCAR-5 ovarian
OVCAR-8 ovarian = tested on: OVCAR-8 ovarian
PC-3 prostate = tested on: PC-3 prostate
RPMI-8226 leukemia = tested on: RPMI-8226 leukemia
RXF 393 renal = tested on: RXF 393 renal
SF-268 CNS = tested on: SF-268 CNS
SF-295 CNS = tested on: SF-295 CNS
SF-539 CNS = tested on: SF-539 CNS
SK-MEL-2 melanoma = tested on: SK-MEL-2 melanoma
SK-MEL-28 melanoma = tested on: SK-MEL-28 melanoma
SK-MEL-5 melanoma = tested on: SK-MEL-5 melanoma
SK-OV-3 ovarian = tested on: SK-OV-3 ovarian
SN12C renal = tested on: SN12C renal
SNB-19 CNS = tested on: SNB-19 CNS
SNB-75 CNS = tested on: SNB-75 CNS
SNB-78 CNS = tested on: SNB-78 CNS
SR leukemia = tested on: SR leukemia
SW-620 colon = tested on: SW-620 colon
T-47D breast = tested on: T-47D breast
TK-10 renal = tested on: TK-10 renal
U251 CNS = tested on: U251 CNS
UACC-257 melanoma = tested on: UACC-257 melanoma
UACC-62 melanoma = tested on: UACC-62 melanoma
UO-31 renal = tested on: UO-31 renal
XF 498 CNS = tested on: XF 498 CNS
M19-MEL melanoma = tested on: M19-MEL melanoma
RXF-631 renal = tested on: RXF-631 renal
HCT-15 colon = tested on: HCT-15 colon

## Cc1cccc(C(C)(C)C)c1NC(=O)C(C#N)C1=C(Cl)C(=O)c2ccccc2C1=O (configuration not stated)
786-0 renal
  TGI: 30 µM
A498 renal
  TGI: 44.4 µM
A549 NSCLC
  TGI: 46.7 µM
ACHN renal
  TGI: 27.6 µM
BT-549 breast
  TGI: 27.5 µM
CAKI-1 renal
  TGI: 31.5 µM
CCRF-CEM leukemia
  TGI: 10.7 µM
COLO 205 colon
  TGI: 35 µM
DLD-1 colon
  TGI: 33.4 µM
DMS 114 small cell lung
  TGI: 38.3 µM
DMS 273 small cell lung
  TGI: 36.2 µM
DU-145 prostate
  TGI: 36.5 µM
EKVX NSCLC
  TGI: 17.1 µM
HCC-2998 colon
  TGI: 29.7 µM
HCT-116 colon
  TGI: 27.2 µM
HL-60(TB) leukemia
  TGI: 26 µM
HOP-18 NSCLC
  TGI: 24.3 µM
HOP-62 NSCLC
  TGI: 32.2 µM
HOP-92 NSCLC
  TGI: 9.68 µM
HS 578T breast
  TGI: 52.5 µM
HT29 colon
  TGI: 40.7 µM
IGROV1 ovarian
  TGI: 33 µM
K-562 leukemia
  TGI: 10.2 µM
KM12 colon
  TGI: 31.3 µM
KM20L2 colon
  TGI: 38.4 µM
LOX IMVI melanoma
  TGI: 30.7 µM
LXFL 529 NSCLC
  TGI: 29.2 µM
M14 melanoma
  TGI: 32.5 µM
MALME-3M melanoma
  TGI: 31.1 µM
MCF7 breast
  TGI: 32.9 µM
MDA-MB-231 breast
  TGI: 27.3 µM
MDA-MB-435
  TGI: 30.6 µM
MDA-N
  TGI: 27.4 µM
MOLT-4 leukemia
  TGI: 22.6 µM
NCI-H226 lung
  TGI: 21.2 µM
NCI-H23 lung
  TGI: 30.2 µM
NCI-H460 lung
  TGI: 38.5 µM
NCI-H522 lung
  TGI: 26.9 µM
NCI/ADR-RES ovarian
  TGI: 37.7 µM
OVCAR-3 ovarian
  TGI: 31.4 µM
OVCAR-4 ovarian
  TGI: 28.9 µM
OVCAR-5 ovarian
  TGI: 32 µM
OVCAR-8 ovarian
  TGI: 37.4 µM
PC-3 prostate
  TGI: 26.3 µM
RPMI-8226 leukemia
  TGI: 49.2 µM
RXF 393 renal
  TGI: 30.6 µM
SF-268 CNS
  TGI: 31.2 µM
SF-295 CNS
  TGI: 30.8 µM
SF-539 CNS
  TGI: 32.5 µM
SK-MEL-2 melanoma
  TGI: 30.7 µM
SK-MEL-28 melanoma
  TGI: 31.5 µM
SK-MEL-5 melanoma
  TGI: 31.5 µM
SK-OV-3 ovarian
  TGI: 40.2 µM
SN12C renal
  TGI: 31.5 µM
SNB-19 CNS
  TGI: 39.1 µM
SNB-75 CNS
  TGI: 27.6 µM
SNB-78 CNS
  TGI: 33.1 µM
SR leukemia
  TGI: > 100 µM
SW-620 colon
  TGI: 36.3 µM
T-47D breast
  TGI: 26.1 µM
TK-10 renal
  TGI: 33.3 µM
U251 CNS
  TGI: 31.3 µM
UACC-257 melanoma
  TGI: 30.3 µM
UACC-62 melanoma
  TGI: 32.5 µM
UO-31 renal
  TGI: 27.9 µM
XF 498 CNS
  TGI: 29.4 µM

## Cc1ccc(S(=O)(=O)NC(=O)C2S(=O)(=O)OCCOS2(=O)=O)cc1
786-0 renal
  TGI: > 100 µM
A549 NSCLC
  TGI: > 100 µM
CAKI-1 renal
  TGI: > 100 µM
CCRF-CEM leukemia
  TGI: > 100 µM
COLO 205 colon
  TGI: > 100 µM
DLD-1 colon
  TGI: > 100 µM
DMS 273 small cell lung
  TGI: > 100 µM
EKVX NSCLC
  TGI: > 100 µM
HCC-2998 colon
  TGI: > 100 µM
HCT-116 colon
  TGI: > 100 µM
HL-60(TB) leukemia
  TGI: > 100 µM
HOP-62 NSCLC
  TGI: > 100 µM
HOP-92 NSCLC
  TGI: > 100 µM
HT29 colon
  TGI: > 100 µM
K-562 leukemia
  TGI: > 100 µM
KM12 colon
  TGI: > 100 µM
LXFL 529 NSCLC
  TGI: > 100 µM
M14 melanoma
  TGI: > 100 µM
M19-MEL melanoma
  TGI: > 100 µM
MALME-3M melanoma
  TGI: > 100 µM
NCI-H226 lung
  TGI: > 100 µM
NCI-H23 lung
  TGI: > 100 µM
NCI-H522 lung
  TGI: > 100 µM
OVCAR-3 ovarian
  TGI: > 100 µM
OVCAR-4 ovarian
  TGI: > 100 µM
OVCAR-8 ovarian
  TGI: > 100 µM
RPMI-8226 leukemia
  TGI: > 100 µM
RXF-631 renal
  TGI: > 100 µM
SF-268 CNS
  TGI: > 100 µM
SF-295 CNS
  TGI: > 100 µM
SF-539 CNS
  TGI: > 100 µM
SK-MEL-2 melanoma
  TGI: > 100 µM
SK-MEL-28 melanoma
  TGI: > 100 µM
SK-MEL-5 melanoma
  TGI: > 100 µM
SK-OV-3 ovarian
  TGI: > 100 µM
SN12C renal
  TGI: > 100 µM
SNB-19 CNS
  TGI: > 100 µM
SNB-75 CNS
  TGI: > 100 µM
SNB-78 CNS
  TGI: > 100 µM
SR leukemia
  TGI: > 100 µM
SW-620 colon
  TGI: > 100 µM
TK-10 renal
  TGI: > 100 µM
UACC-257 melanoma
  TGI: > 100 µM
UACC-62 melanoma
  TGI: > 100 µM
UO-31 renal
  TGI: > 100 µM
XF 498 CNS
  TGI: > 100 µM

## O=C(CCc1nc(=S)[nH][nH]1)Nc1cc(Cl)ccc1Cl
786-0 renal
  TGI: > 100 µM
A498 renal
  TGI: > 100 µM
A549 NSCLC
  TGI: > 100 µM
ACHN renal
  TGI: > 100 µM
CAKI-1 renal
  TGI: > 100 µM
CCRF-CEM leukemia
  TGI: > 100 µM
COLO 205 colon
  TGI: > 100 µM
DLD-1 colon
  TGI: > 100 µM
DMS 114 small cell lung
  TGI: > 100 µM
DMS 273 small cell lung
  TGI: > 100 µM
EKVX NSCLC
  TGI: > 100 µM
HCC-2998 colon
  TGI: > 100 µM
HCT-116 colon
  TGI: > 100 µM
HCT-15 colon
  TGI: > 100 µM
HL-60(TB) leukemia
  TGI: > 100 µM
HOP-18 NSCLC
  TGI: > 100 µM
HOP-62 NSCLC
  TGI: > 100 µM
HOP-92 NSCLC
  TGI: > 100 µM
HT29 colon
  TGI: > 100 µM
IGROV1 ovarian
  TGI: > 100 µM
K-562 leukemia
  TGI: > 100 µM
KM12 colon
  TGI: > 100 µM
KM20L2 colon
  TGI: > 100 µM
LXFL 529 NSCLC
  TGI: > 100 µM
M14 melanoma
  TGI: > 100 µM
M19-MEL melanoma
  TGI: > 100 µM
MALME-3M melanoma
  TGI: > 100 µM
MOLT-4 leukemia
  TGI: > 100 µM
NCI-H226 lung
  TGI: > 100 µM
NCI-H23 lung
  TGI: > 100 µM
NCI-H460 lung
  TGI: > 100 µM
NCI-H522 lung
  TGI: > 100 µM
OVCAR-3 ovarian
  TGI: > 100 µM
OVCAR-4 ovarian
  TGI: > 100 µM
OVCAR-5 ovarian
  TGI: > 100 µM
OVCAR-8 ovarian
  TGI: > 100 µM
RPMI-8226 leukemia
  TGI: > 100 µM
RXF-631 renal
  TGI: > 100 µM
SF-268 CNS
  TGI: > 100 µM
SF-295 CNS
  TGI: > 100 µM
SF-539 CNS
  TGI: > 100 µM
SK-MEL-2 melanoma
  TGI: > 100 µM
SK-MEL-28 melanoma
  TGI: > 100 µM
SK-MEL-5 melanoma
  TGI: > 100 µM
SK-OV-3 ovarian
  TGI: > 100 µM
SN12C renal
  TGI: > 100 µM
SNB-19 CNS
  TGI: > 100 µM
SNB-75 CNS
  TGI: > 100 µM
SR leukemia
  TGI: > 100 µM
SW-620 colon
  TGI: > 100 µM
TK-10 renal
  TGI: > 100 µM
U251 CNS
  TGI: > 100 µM
UACC-257 melanoma
  TGI: > 100 µM
UACC-62 melanoma
  TGI: > 100 µM
UO-31 renal
  TGI: > 100 µM

— PubChem BioAssay (NCI)
